Three molecules from article PMC12921516 (ACS Bio & Med Chem Au, 2025) can be followed below.

The target of one test is T1, hTCPTP1–415 (Homo sapiens, UniProt P17706).
T1 construct: h TCPTP 1–415 IC 50 (μM ± S.D); made in house
T1 sequence (P17706 1-415): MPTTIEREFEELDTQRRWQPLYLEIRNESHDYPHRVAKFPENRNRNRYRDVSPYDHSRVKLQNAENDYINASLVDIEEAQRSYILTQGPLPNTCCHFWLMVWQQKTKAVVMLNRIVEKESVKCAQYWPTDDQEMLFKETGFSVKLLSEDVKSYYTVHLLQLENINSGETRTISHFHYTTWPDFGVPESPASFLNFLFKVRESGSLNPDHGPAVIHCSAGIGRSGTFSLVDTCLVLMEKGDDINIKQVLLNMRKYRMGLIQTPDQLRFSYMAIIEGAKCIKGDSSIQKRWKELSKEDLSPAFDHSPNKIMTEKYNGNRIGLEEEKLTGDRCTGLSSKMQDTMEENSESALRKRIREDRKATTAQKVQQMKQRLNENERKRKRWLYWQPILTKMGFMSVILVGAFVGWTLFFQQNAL
Nature of the test: TCPTP inhibitory activity. Conditions: pNPP substrate; tested up to 100 μM. Type of test: biochemical. On the procedure: The effectiveness and safety of a PTP1B inhibitor primarily depend on its selectivity, given that protein tyrosine phosphatases share significant structural homology within their catalytic domains. […] Ertiprotafib was also included in this study.
Aliquots of 0–10 μL of the test compounds (triplicate) were taken and incubated for 15 min at 37 °C with 85 μL of Tris buffer solution (50 mM, pH 6.8) containing PTP1B enzyme and 5 μL of p-nitrophenyl phosphate substrate (pNPP, 10 mM). The absorbance of the hydrolysis product, p-nitrophenol (pNP), was measured at 405 nm using a 96-microplate absorbance reader (Accuris SmartReader 96). The inhibitory activity was determined according to eq . %enzyme=(A405b/A405c)×100 1 Where: % enzyme is the percentage of inhibition for PTP1B or TCPTP
The IC50 was calculated using regression analysis, eq : %inhibition=A100/1+(I/IC50)^s 2 Where: A100: Maximum inhibition

Another test concerns HepG2 cells. Put plainly: GC-MS untargeted metabolomic analysis. Type of test: cell-based, human. Conditions: HepG2, 30 μM for 24 h, vs DMSO. On the procedure: HepG2 cells are commonly utilized in metabolomics to study alterations in metabolic pathways, such as glycolysis and lipid metabolism, when exposed to various substances, − due to their ability to sustain liver-specific functions. To explore the metabolic changes induced by the 4b and 5g derivatives in HepG2 cells, an untargeted metabolomic analysis using GC-MS was carried out. […] This vitamin is essential for synthesizing coenzyme A (CoA), which in turn produces acetyl-CoA and succinyl-CoA, all of which are crucial for ATP production in the tricarboxylic acid (TCA) cycle. […] On the other hand, our findings indicate that 5g leads to a reduction in intracellular citrate levels, which may promote glycolysis and diminish gluconeogenesis similarly to metformin. Consequently, this could potentially lower hepatic glucose output. In summary, the increased intracellular levels of pantothenic acid and glycine, combined with the lowered citrate levels achieved by 5g, may play a significant role in improving insulin resistance and T2DM.
5 GC-MS-based untargeted metabolomic analysis of HepG2. (a) Heatmap analysis of HepG2 cells treated with DMSO (D, vehicle), 4b, or 5g for 24 h. (b) Principal Component Analysis (PCA) of untargeted metabolomic analysis of HepG2 treated with DMSO (vehicle), 4b, and 5g at 30 μM for 24 h (c). Statistically significant metabolites altered between the groups. Graphs were constructed using sum-normalized peak height values. Asterisks indicate statistical significance according to the Dunn test, with p-values denoted as follows: *p < 0.05, **p < 0.01. Created in BioRender. Matuz Mares, D. (2025) https://BioRender.com/hpj5plg.
The treated HepG2 cells were washed twice with 1 mL of PBS, and the liquid was entirely removed by pipetting. Posteriorly, 1 mL of ice-cold methanol containing 2.5 μL of internal standard, consisting of tridecanoic acid (0.1 mg/mL), was added, and the mixture was bath sonicated for 2 min. All the extract was recovered in microcentrifuge tubes, thoroughly vortexed, and then centrifuged for 10 min at 15,000 rpm at 4 °C. The supernatant was recovered and dried overnight using a SpeedVac (SPD 121P, Thermo Scientific). 40 μL of 20 mg/mL […] was added under nitrogen flow and incubated for 90 min at 37 °C. Posteriorly, the tube was centrifuged, and the supernatant was fully recovered and transferred to an insert tube with 40 μL of MBSTFA 1% TMCS, vortexed and incubated for 30 min. One μL of this extract was injected into a GC/MS (Agilent 5977A/7890B, Santa Clara, CA, USA) system with HP5-MS (Agilent) column with helium 99.9999% purity under the following parameters: splitless, flow 1 mL/min, electron ionization, with a range of 50–500 m/z. The chromatography consisted of a 1 min hold at 60 °C, followed by a ramp of 10 °C/min to 325 °C, and a final hold time of 10 min. Raw data was transformed with Agilent Mass Hunter to mz data, and deconvolution and alignment were performed with Mzmine2.0. Univariate and multivariate analyses were performed with Metaboanalyst 6.0 and GraphPad.

`CC1(C)c2[nH]c3ccc(OC(F)F)cc3c2C[C@]2(C)[C@H]3C(=O)C=C4[C@@H]5C[C@@](C)(C(=O)O)CC[C@]5(C)CC[C@@]4(C)[C@]3(C)CC[C@@H]12` [compound 4b, (20β)-5′-(Difluoromethoxy)-11-oxo-1′H-oleana-2,12-dieno[3,2-b]indol-29-oic Acid] yielded an IC50 on hTCPTP1–415 of more than 100 µM. Besides, in the test on HepG2 cells, the glycine levels entry is “not statistically significant”, the intracellular fructose levels entry is given as “not statistically significant”, the intracellular glucose levels entry was “not statistically significant” and the “intracellular palmitic acid levels” value was “significantly reduce”. Moreover, in the test on HepG2 cells, the “intracellular stearic acid levels” value is given as “significantly reduce” and the pantothenic acid levels entry was “not statistically significant”.

`CC1(C)c2[nH]c3ccc(S(N)(=O)=O)cc3c2C[C@]2(C)[C@H]3C(=O)C=C4[C@@H]5C[C@@](C)(C(=O)O)CC[C@]5(C)CC[C@@]4(C)[C@]3(C)CC[C@@H]12` [compound 4g, (20β)-5′-Sulfamoyl-11-oxo-1′H-oleana-2,12-dieno[3,2-b]indol-29-oic Acid] came in with an IC50 against hTCPTP1–415 of more than 100 µM.

With `CC1(C)c2c(cnn2-c2ccc(S(N)(=O)=O)cc2)C[C@]2(C)[C@H]3C(=O)C=C4[C@@H]5C[C@@](C)(C(=O)O)CC[C@]5(C)CC[C@@]4(C)[C@]3(C)CC[C@@H]12` [compound 5g, (20β)-11-Oxo-2′-(4-sulfamoylphenyl)-2′H-oleana-2,12-dieno[3,2-c]pyrazol-29-oic Acid], the IC50 against hTCPTP1–415 is more than 100 µM. Moreover, in the test on HepG2 cells, the glycine levels result is given as “markedly increasing”, the intracellular citrate levels result is listed as “reduction”, the intracellular fructose levels result is “significantly lowers” and the intracellular glucose levels result is “significantly lowers”. Further, the pantothenic acid levels result in the test on HepG2 cells was “significant increase”.
